# Source: patent publication EP4000606A1, “COMPOUNDS FOR CORONAVIRUS INFECTION TREATMENT AND/OR PREVENTION” (priority 2020, dated 2022)
# Read-outs that look alike come from different tables or passages of the source.
# System: SARS-CoV-2
# Assay: microbe, parasite or virus in culture
# Type: cell-based
# [1] = confluence of SARS-CoV-2 infected VeroE6-EGFP cells after test compound treatment compared to control wells, 5 days
# [2] = Severe acute respiratory syndrome coronavirus 2, 120 h
# [3] = Severe acute respiratory syndrome coronavirus 2, 120 h, half maximal concentration able to recover the cytopathic effect of infection, VeroE6-EGFP cells, 0.01 MOI, 5 days, 8 concentrations, read-out: IC50
Compound,Maximum confluence reached (%) (5 days),IC50 [2] [µM],further results
"O=C(c1c2ccccc2cc2ccccc12)N1CCC(N2CCC[C@@H](C(=O)N3CCOCC3)C2)CC1 [compound 81, 1-[1'-(Anthracen-9-ylcarbonyl)-1,4'-bipiperidin-3(R)-yl]-1-(4-morpholinyl)methanone]",,,Maximum confluence reached (%) [1]: 51%
"CC(C)(C)c1cc(C=C(C#N)C#N)cc(C(C)(C)C)c1O [compound 103, (3,5-Di-tert-butyl-4-hydroxybenzylidene)malononitrile]",51.51,205,
"CCC(C/C=C/c1ccccc1)(c1ccccc1)N(C)CC1CC1 (single isomer, unassigned; (+)) [compound 89, (+)-N-(Cyclopropylmethyl)-N-[1-ethyl-1,4-diphenyl-3(E)-butenyl]-N-methylamine]",58.34,11.2,
"C[C@H]1CCC/C=C/[C@@H]2C[C@H](O)C[C@H]2[C@H](O)/C=C/C(=O)O1 (relative stereo) [compound 47, (1R,2S,7S,13S,15S)-2,15-Dihydroxy-7-methyl-6-oxabicyclo[11.3.0]hexadeca-3(E),11(E)-dien-5-one [1S-(1R*,2E,6R*,10E,11aR*,13R*,14a S*)]-1,6,7,8,9,11a,12,13,14,14a-Decahydro-1,13-dihydroxy-6-methyl-4H-cyclopent[f]oxacyclotridecin-4-one]",,,"Emax (Severe acute respiratory syndrome coronavirus 2, 120 h, 5 days, read-out: Maximum confluence reached (%)): 122%"
"CC(C)(C)c1cc(C=C(C#N)C#N)cc(Br)c1O [compound 99, 2-(3-Bromo-5-tert-butyl-4-hydroxybenzylidene)propanedini trile 2-(3-Bromo-5-tert-butyl-4-hydroxybenzylidene)malononitrile]",37.27,7.23,
"CN(C)CCC=C1c2ccccc2C=Cc2ccccc21.Cl [compound 90, 3-(5H-Dibenzo[a,d]cyclohepten-5-ylidene)-N,N-dimethylpropan-1-amine hydrochloride]",,12.1,"Maximum confluence reached (%): 70,19%"
"CN1[C@@H]2CC[C@H]1C[C@@H](OC(=O)c1cc(Cl)cc(Cl)c1)C2 [compound 36, 1alphaH,3alpha,5alphaH-Tropan-3-yl-3,5-dichlorobenzoate; 3,5-Dichlorobenzoic acid endo-8-methyl-8-azabicyclo[3.2.1]oct-3-yl ester]",69.05,43.9,
"Oc1c(Cl)cc(Cl)cc1Sc1cc(Cl)cc(Cl)c1O [compound 102, 2,2'-Thio-bis(4,6-dichlorophenol), Bis(2-hydroxy-3,5-dichlorophenyl) sulfide]",31.25,,
"Cl.O=C(c1c2ccccc2cc2ccccc12)N1CCC(N2CCC[C@@H](C(=O)N3CCOCC3)C2)CC1 [compound 101, 1-[1'-(Anthracen-9-ylcarbonyl)-1,4'-bipiperidin-3(R)-yl]-1-(4-morpholinyl)methanone hydrochloride]",50.88,,
"O=C(C1CC1)N1CC[C@@H](Cc2n[nH]c(=O)n2-c2ccc(-c3ccc4ccoc4c3)cc2)C1 [compound 67, 4-[4-(1-Benzofuran-6-yl)phenyl]-5-[1-(cyclopropylcarbonyl)pyrrolidin-3(S)-ylmethyl]-3,4-dihydro-2H-1,2,4-triazol-3-one]",31.06,17,
"c1cncc(CN2CCC(n3ncc4c(N5CCOCC5)nc(-c5ccc6[nH]ccc6c5)nc43)CC2)c1 [compound 32, 6-(1H-Indol-5-yl)-4-(4-morpholinyl)-1-[1-(pyridin-3-ylmethyl)piperidin-4-yl]-1H-pyrazolo[3,4-d]pyrimidine]",67.69,,
"C[C@@H]1COCCN1c1cc(=O)n2c(n1)N(Cc1cncc(Cl)c1)[C@H](C(F)(F)F)CC2 [compound 54, (8S)-9-[(5-Chloropyridin-3-yl)methyl]-2-[(3R)-3-methylmorpholin-4-yl]-8-(trifluoromethyl)-6,7,8,9-tetrahydro-4H-pyrimido[1,2-a]pyrimidin-4-one]",,,Maximum confluence reached (%) [1]: 89%
"N#Cc1cccc(C#N)c1-c1nc2c3ccc(Cl)cc3c3ccccc3c2[nH]1 [compound 64, 2-(6-Chloro-1H-phenanthro[9,10-d]imidazol-2-yl)benzene-1,3-dicarbonitrile]",98.48,,
"(4R,4aS)-18-Ethenyl-4,4a-dihydro-3,4-bis(methoxycarbonyl)-4a,8,14,19-tetramethyl-24H,26H-benzo[b]porphine-9,13-dipropanoic acid monomethyl ester [compound 39]",89.5,,IC50 (read-out: IC50): 30 µM
"COc1cc2c(NC3CCN(C4CCCCC4)CC3)nc(N3CCCN(C(C)C)CC3)nc2cc1OCCCN1CCCCC1 [compound 59, N-(1-Cyclohexylpiperidin-4-yl)-6-methoxy-7-[3-(1-piperidinyl)propoxy]-2-[4-(propan-2-yl)perhydro-1,4-diazepin-1-yl]quinazolin-4-amine]",80.08,,
"CN1CCN(CCCN2c3ccccc3Sc3ccc(C(F)(F)F)cc32)CC1.Cl.Cl [compound 94, 10-[3-(4-Methylpiperazin-1-yl)propyl]-2-(trifluoromethyl)-10H-phenothiazine dihydrochloride]",37.97,,
"CN(C)c1cccc(-c2c3c(=O)n(-c4ccccc4Cl)[nH]c3cc(=O)n2C)c1 [compound 13, 2-(2-Chlorophenyl)-4-[3-(dimethylamino)phenyl]-5-methyl-1H-pyrazolo[4,3-c]pyridine-3,6(2H,5H)-dione]",101.52,7.57,
"Cc1ccc(NC(=O)Nc2cc(C(F)(F)F)ccc2F)cc1Nc1ccc2c(c1)NC(=O)C2=Cc1ccc[nH]1 [compound 92, 1-[2-Fluoro-5-(trifluoromethyl)phenyl]-3-[4-methyl-3-[2-oxo-3-(1H-pyrrol-2-ylmethylene)-2,3-dihydro-1H-indol-6-ylamino]phenyl]urea]",75.5,5.23,
"CCN(CC)CCO[C@H]1CC[C@@]2(C)C(=CC[C@@H]3[C@@H]2CC[C@]2(C)C(=O)CC[C@@H]32)C1.Cl [compound 80, 3beta-[2-(Diethylamino)ethoxy]androst-5-en-17-one hydrochloride]",44.66,,
"CCCCOCCOc1ccc(-c2ccc3c(c2)C=C(C(=O)Nc2ccc([S@@+]([O-])Cc4cncn4CCC)cc2)CCCN3CC(C)C)cc1 [compound 65, (-)-(S)-8-[4-(2-Butoxyethoxy)phenyl]-1-isobutyl-N-[4-(1-propyl-1H-imidazol-5-ylmethylsulfinyl)phenyl]-1,2,3,4-tetrahydro-1-benzazocine-5-carboxamide]",70.92,,IC50 [3]: 55 µM
"CN(Cc1cnc2nc(N)nc(N)c2n1)c1ccc(C(=O)N[C@@H](CCC(=O)O)C(=O)O)cc1 [compound 1, N-[4-[N-(2,4-Diaminopteridin-6-ylmethyl)-N-methylamino]benzoyl]-L-glutamic acid]",,,IC50 [3]: 0.05 µM; Maximum confluence reached (%) [1]: 64%
"COc1ccccc1[C@H](Cn1c(=O)n(C(C)(C)C(=O)O)c(=O)c2c(C)c(-c3ncco3)sc21)OC1CCOCC1 [compound 61, 2-[1-[(2R)-2-(2-Methoxyphenyl)-2-(tetrahydro-2H-pyran-4-yloxy)ethyl]-5-methyl-6-(1,3-oxazol-2-yl)-2,4-dioxo-1,4-dihydrothieno[2,3-d]pyrimidin-3(2H)-yl]-2-methylpropanoic acid]",78.18,,
"Cn1nc(C(C)(C)C)cc1C(=O)N[C@@H](Cc1cccc(Cl)c1)C(=O)NCC#N [compound 63, 3-tert-butyl-N-{(1S)-1-(3-chlorobenzyl)-2-[(cyanomethyl)amino]-2-oxoethyl}-1-methyl-1H-pyrazole-5-carboxamide]",96.18,,
"C#CCC(Cc1cnc2nc(N)nc(N)c2n1)c1ccc(C(=O)N[C@@H](CCC(=O)O)C(=O)O)cc1 (stereo partly drawn) [compound 3, N-[4-[2-(2,4-Diaminopteridin-6-yl)-1-(2-propynyl)ethyl]benzoyl]-L-glutamic acid 10-Propargyl-10-deazaaminopterin]",76.65,,
"O=[N+]([O-])c1ccc(N/N=C/c2sc(N3CCOCC3)nc2-c2ccccc2)c(S(=O)(=O)Nc2ccccc2Cl)c1 [compound 73, N-(2-chlorophenyl)-2-[(2E)-2-[(2-morpholin-4-yl-4-phenyl-1,3-thiazol-5-yl)methylidene]hydrazinyl]-5-nitrobenzenesulfonamide]",53.9,,
"COc1ccc2c(c1)[C@]1(C[C@H]1c1ccc3c(/C=C/c4ccc(CN5C[C@@H](C)O[C@@H](C)C5)cc4)n[nH]c3c1)C(=O)N2.O=C(O)/C=C/C(=O)O [compound 33, (1R,2S)-2-[3-[(E)-2-[4-[(cis-2,6-Dimethylmorpholin-4-yl)methyl]phenyl]vinyl]-1H-indazol-6-yl]-5'-methoxyspiro[cyclopropane-1,3'-indol]-2'(1'H)-one (2E)-but-2-enedioate]",105.46,,
